# Results from patent publication US11534377B2, “Hair growth agent” (KOBAYASHI PHARMACEUTICAL CO., LTD., priority 2016, dated 2022).
# Columns and labels:
# [1] = system: C57BL/6N mice; assay: Hair shaft diameter of regrown body hair after hair pull-out (Example 2); format: in vivo; settings: 1 wt % in 50% ethanol, once/day 100 μl, day 21 after the application; FIG. 15, P<0.01
# Text: In C57BL6/N mice, it is known that when body hair of the back is pulled out, hair cycles in the pulled-out region are forced to shift to the […], and as a result, the hair cycles in the pulled-out region are synchronized. Therefore, only hair in the anagen phase becomes observable by decreasing variations in hair cycles. Approximately 7 days after hair is pulled out, as a sign of the anagen phase, skin color changing into gray is observed as melanocytes in hair follicles start synthesizing melanin, in addition to growth of pigmented hair. Further, approximately 10 days after hair is pulled out, new hair growth is observed in the pulled-out region. […] Accordingly, hair growth activity can be evaluated from a viewpoint of an increase in hair shaft diameter by measuring the hair shaft diameter of body hair grown in the pulled-out region approximately 21 days after hair is pulled out. […]
# The application was performed for two groups (test solution-applied group and negative control group (50% ethanol-applied group)), where each group consisted of six mice. […] About 20 hair shafts were collected from each mouse, and the hair shaft diameter was measured for 10 hair shafts randomly selected from 120 hair shafts in total collected from 6 mice of each group. […]
# [2] = system: transplanted mice (hair follicles of haired mice transplanted into the back of nude mice); assay: Hair shaft growth in nude mice transplanted with hair follicles of haired mice (Example 1); format: in vivo; settings: for Hair shaft growth rate: topical 4 times per day
# Procedure: Hair follicles (surgically prepared) of haired mice were transplanted into the back of nude mice (from Sankyo Labo Service Corporation, Inc.) to produce transplanted mice manipulated such that each hair can be distinguished and a plurality of hair cycles can be observed. First, a 50% ethanol aqueous solution (12.5 μl, not containing the agent) was applied to the transplanted mice 4 times per day during new hair growth in the first hair cycle to obtain reference data of a hair cycle. After the hair had shed following the end of the first hair cycle, a 50% ethanol aqueous solution (12.5 μl) containing a predetermined amount of the agent was applied to the mice 4 times per day to obtain data on effects of the agent. After the hair had shed following the end of the second hair cycle, a 50% ethanol aqueous solution (12.5 μl) containing the agent in the same amount as that in the second hair cycle was applied to the mice in a similar manner to the second hair cycle to obtain reproducibility data on effects of the agent. As the agent, D-chiro-inositol (from Wako Pure Chemical Industries Ltd.) and its stereoisomers as chiro-inositol, L-chiro-inositol (from Tokyo Chemical Industry Co., Ltd.), myo-inositol (from Wako Pure Chemical Industries Ltd.), allo-inositol (cis-1,2,3,4-trans-5,6-cyclohexaneheaxol) (from Tokyo Chemical Industry Co., Ltd.), epi-inositol (cis-1,2,3,4,5-trans-6-cyclohexanehexaol) (from Tokyo Chemical Industry Co., Ltd.), muco-inositol (cis-1,2,4,5-trans-3,6-cyclohexanehexaol) (from Tokyo Chemical Industry Co., Ltd.), and scyllo-inositol (cis-1,3,5-trans-2,4,6-cyclohexanehexaol) (from Tokyo Chemical Industry Co., Ltd.) were used. For each agent solution, the lengths of hair shafts were measured every 2 to 3 days, an average length of hair shafts that changed day by day was plotted as one dot at each time point in a graph, and a similar plotting was repeated for 3 to 4 mice. The results were shown in Tables 1 to 14 and FIGS. 1 to 14.
# [3] = 1 wt %, second hair cycle vs first hair cycle (vehicle)
# [4] = 1 wt %, third hair cycle vs first hair cycle (vehicle)
# [5] = 5 wt %, second hair cycle vs first hair cycle (vehicle)
# [6] = 5 wt %, third hair cycle vs first hair cycle (vehicle)
# [7] = 10 wt %, second hair cycle vs first hair cycle (vehicle)
# [8] = 10 wt %, third hair cycle vs first hair cycle (vehicle)
smiles,measurement,setting,value
OC1C(O)C(O)C(O)C(O)C1O [D-chiro-inositol],Hair shaft diameter vs negative control group,[1],significantly larger
same,"Hair shaft growth rate and hair shaft maximum length, difference from the reference data",[2]; 0.01 wt %,marginally significant differences
same,Hair shaft growth rate,"[2]; 0.01 wt % in 50% ethanol, second hair cycle",0.30 ± 0.03 mm/day
same,Hair shaft growth rate,"[2]; 0.01 wt % in 50% ethanol, third hair cycle (reproducibility)",0.40 ± 0.06 mm/day
same,Hair shaft maximum length,"[2]; 0.01 wt %, second hair cycle",4.8 ± 0.4 mm
same,Hair shaft maximum length,"[2]; 0.01 wt %, third hair cycle (reproducibility)",4.7 ± 0.3 mm
same,Hair shaft growth rate,"[2]; 0.1 wt % in 50% ethanol, second hair cycle",0.30 ± 0.03 mm/day
same,Hair shaft growth rate,"[2]; 0.1 wt % in 50% ethanol, third hair cycle (reproducibility)",0.40 ± 0.06 mm/day
same,Hair growth activity,"[2]; 0.1 wt %, growth rate not significantly different, maximum length increased significantly in third hair cycle",hair growth activity was shown
same,Hair shaft maximum length,"[2]; 0.1 wt %, second hair cycle",4.7 ± 0.4 mm
same,Hair shaft maximum length relative to reference data,"[2]; 0.1 wt %, second hair cycle vs first hair cycle (vehicle)",101%
same,Hair shaft maximum length,"[2]; 0.1 wt %, third hair cycle (reproducibility)",4.8 ± 0.4 mm
same,Hair shaft maximum length relative to reference data,"[2]; 0.1 wt %, third hair cycle vs first hair cycle (vehicle)",105%
same,Hair shaft growth rate,"[2]; 1 wt % in 50% ethanol, second hair cycle",0.47 ± 0.01 mm/day
same,Hair shaft growth rate,"[2]; 1 wt % in 50% ethanol, third hair cycle (reproducibility)",0.48 ± 0.04 mm/day
same,Hair shaft maximum length,"[2]; 1 wt %, second hair cycle",5.7 ± 0.4 mm
same,Hair shaft growth rate relative to reference data,[2]; [3],121%
same,Hair shaft maximum length relative to reference data,[2]; [3],110%
same,Hair shaft maximum length,"[2]; 1 wt %, third hair cycle (reproducibility)",6.0 ± 0.4 mm
same,Hair shaft growth rate relative to reference data,[2]; [4],123%
same,Hair shaft maximum length relative to reference data,[2]; [4],116%
same,Hair shaft growth rate,"[2]; 5 wt % in 50% ethanol, second hair cycle",0.46 ± 0.04 mm/day
same,Hair shaft growth rate,"[2]; 5 wt % in 50% ethanol, third hair cycle (reproducibility)",0.49 ± 0.07 mm/day
same,Hair shaft maximum length,"[2]; 5 wt %, second hair cycle",5.1 ± 0.3 mm
same,Hair shaft growth rate relative to reference data,[2]; [5],128%
same,Hair shaft maximum length relative to reference data,[2]; [5],116%
same,Hair shaft maximum length,"[2]; 5 wt %, third hair cycle (reproducibility)",5.1 ± 0.4 mm
same,Hair shaft growth rate relative to reference data,[2]; [6],136%
same,Hair shaft maximum length relative to reference data,[2]; [6],116%
same,Hair shaft growth rate,"[2]; 10 wt % in 50% ethanol, second hair cycle",0.46 ± 0.06 mm/day
same,Hair shaft growth rate,"[2]; 10 wt % in 50% ethanol, third hair cycle (reproducibility)",0.63 ± 0.05 mm/day
same,Hair shaft growth rate and hair shaft maximum length relative to the reference data,"[2]; 10 wt %, 5 wt %, or 1 wt % as the agent",increased significantly
same,Hair shaft maximum length,"[2]; 10 wt %, second hair cycle",5.6 ± 0.5 mm
same,Hair shaft growth rate relative to reference data,[2]; [7],154%
same,Hair shaft maximum length relative to reference data,[2]; [7],142%
same,Hair shaft maximum length,"[2]; 10 wt %, third hair cycle (reproducibility)",5.9 ± 0.5 mm
same,Hair shaft growth rate relative to reference data,[2]; [8],210%
same,Hair shaft maximum length relative to reference data,[2]; [8],149%
